# Biological target: T1, full length human recombinant glucocorticoid receptor (Homo sapiens, UniProt P04150)
# T1 construct: It contains some partially purified full length human recombinant glucocorticoid receptor; purchased Panvera/Invitrogen PV4302
# T1 sequence (P04150 1-777): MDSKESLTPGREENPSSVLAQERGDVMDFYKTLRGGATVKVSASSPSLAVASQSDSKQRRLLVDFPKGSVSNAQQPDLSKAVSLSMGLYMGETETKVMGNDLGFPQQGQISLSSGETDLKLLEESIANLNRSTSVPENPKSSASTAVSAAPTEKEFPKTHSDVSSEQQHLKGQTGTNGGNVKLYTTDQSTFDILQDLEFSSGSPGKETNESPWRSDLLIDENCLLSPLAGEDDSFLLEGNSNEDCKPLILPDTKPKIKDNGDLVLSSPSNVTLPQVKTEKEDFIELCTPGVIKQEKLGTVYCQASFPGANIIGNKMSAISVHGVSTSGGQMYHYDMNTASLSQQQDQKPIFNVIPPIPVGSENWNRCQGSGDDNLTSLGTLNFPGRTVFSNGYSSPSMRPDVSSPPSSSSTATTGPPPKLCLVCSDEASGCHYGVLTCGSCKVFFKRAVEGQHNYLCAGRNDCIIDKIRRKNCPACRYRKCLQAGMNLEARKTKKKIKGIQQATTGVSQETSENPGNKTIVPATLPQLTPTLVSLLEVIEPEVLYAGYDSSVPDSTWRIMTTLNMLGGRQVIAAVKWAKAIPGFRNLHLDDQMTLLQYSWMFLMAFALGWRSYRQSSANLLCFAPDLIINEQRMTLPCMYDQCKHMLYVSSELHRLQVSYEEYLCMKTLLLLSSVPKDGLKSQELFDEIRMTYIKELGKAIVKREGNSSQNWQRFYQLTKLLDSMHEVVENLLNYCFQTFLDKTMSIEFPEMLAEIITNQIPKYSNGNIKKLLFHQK
# Test: Glucocorticoid Receptor Binding Assay (Glucocorticoid Receptor Competitor Assay far red kit, fluorescence polarization)
# Conditions: competition with fluorescent GR ligand Fluormone GS Far Red, 3 hours at 22° C., pH 7.4; Ki calculated from IC50 by Cheng-Prusoff
# Outline: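 Fluorescence polarization competition with partially purified full-length human recombinant GR, stabilizing peptide and Fluormone GS Far Red tracer in screening buffer pH 7.4; 3 hours at 22° C in the dark, read at 610–660 nm. IC50 from sigmoidal fit; Ki by Cheng-Prusoff.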
row,SMILES,Ki
1,"CC(c1ccc(O)cc1Cl)C(O)(c1ccc2c(c1)n(C)c(=O)n2C)C(F)(F)F (centres unmarked) [Example 85, 5-[2-(2-Chloro-4-hydroxy-phenyl)-1-hydroxy-1-trifluoromethyl-propyl]-1,3-dimethyl-1,3-dihydro-benzoimidazol-2-one]",0.8 nM
2,"CC(c1ccc(Oc2ccc(C(=O)O)cc2F)cc1Cl)C(O)(c1ccc2c(c1)n(C)c(=O)n2C)C(F)(F)F (centres unmarked) [Example 86, 4-{3-Chloro-4-[2-(1,3-dimethyl-2-oxo-2,3-dihydro-1H-benzoimidazol-5-yl)-3,3,3-trifluoro-2-hydroxy-1-methyl-propyl]-phenoxy}-3-fluoro-benzoic acid]",2.7 nM
3,"CC(c1ccc(Oc2ccc(C(=O)O)cc2Cl)cc1Cl)C(O)(c1ccc2c(c1)n(C)c(=O)n2C)C(F)(F)F (centres unmarked) [Example 87, 3-Chloro-4-{3-chloro-4-[2-(1,3-dimethyl-2-oxo-2,3-dihydro-1H-benzoimidazol-5-yl)-3,3,3-trifluoro-2-hydroxy-1-methyl-propyl]-phenoxy}-benzoic acid]",3.7 nM
4,"CC(c1ccc(Oc2ccc(F)c(C(=O)O)c2)cc1Cl)C(O)(c1ccc2c(c1)n(C)c(=O)n2C)C(F)(F)F (centres unmarked) [Example 91, 5-{3-Chloro-4-[2-(1,3-dimethyl-2-oxo-2,3-dihydro-1H-benzoimidazol-5-yl)-3,3,3-trifluoro-2-hydroxy-1-methyl-propyl]phenoxy}-2-fluoro-benzoic acid]",0.3 nM
5,"C[C@@H](c1ccc(-c2ccc(C(=O)O)c(F)c2)cc1Cl)[C@](O)(c1ccc2oc(=O)n(C)c2c1)C(F)(F)F [Example 119, 3′-Chloro-3-fluoro-4′-[(1S,2S)-3,3,3-trifluoro-2-hydroxy-1-methyl-2-(3-methyl-2-oxo-2,3-dihydro-benzooxazol-5-yl)-propyl]-biphenyl-4-carboxylic acid]",0.3 nM
6,"C[C@H](c1ccc(-c2ccc(C(=O)O)c(F)c2)cc1Cl)[C@@](O)(c1ccc2oc(=O)n(C)c2c1)C(F)(F)F [Example 120, 3′-Chloro-3-fluoro-4′-[(1R,2R)-3,3,3-trifluoro-2-hydroxy-1-methyl-2-(3-methyl-2-oxo-2,3-dihydro-benzooxazol-5-yl)-propyl]-biphenyl-4-carboxylic acid]",46 nM
7,"CC(c1ccc(Oc2ccc(C(=O)O)c(Cl)c2)cc1Cl)C(O)(c1ccc(C#N)cc1)C(F)(F)F (centres unmarked) [Example 156, 2-Chloro-4-{3-chloro-4-[2-(4-cyano-phenyl)-3,3,3-trifluoro-2-hydroxy-1-methyl-propyl]-phenoxy}-benzoic acid]",192 nM
8,"C[C@H](c1ccc(Oc2ccc(C(=O)O)c(Cl)c2)cc1Cl)[C@@](O)(c1ccc2c(c1)N(C)C(=O)CO2)C(F)(F)F [Example 218, 2-Chloro-4-{3-chloro-4-[(1R,2R)-3,3,3-trifluoro-2-hydroxy-1-methyl-2-(4-methyl-3-oxo-3,4-dihydro-2H-benzo[1,4]oxazin-6-yl)-propyl]-phenoxy}-benzoic acid]",119 nM
9,"C[C@@H](c1ccc(Oc2ccc(C(=O)O)c(Cl)c2)cc1Cl)[C@](O)(c1ccc2c(c1)N(C)C(=O)CO2)C(F)(F)F [Example 219, 2-Chloro-4-{3-chloro-4-[(1S,2S)-3,3,3-trifluoro-2-hydroxy-1-methyl-2-(4-methyl-3-oxo-3,4-dihydro-2H-benzo[1,4]oxazin-6-yl)-propyl]-phenoxy}-benzoic acid]",0.8 nM
10,"C[C@H](c1ccc(Oc2ncc(C(=O)O)cc2Cl)cc1Cl)[C@@](O)(c1ccc2c(c1)N(C)C(=O)CO2)C(F)(F)F [Example 223, 5-Chloro-6-{3-chloro-4-[(1R,2R)-3,3,3-trifluoro-2-hydroxy-1-methyl-2-(4-methyl-3-oxo-3,4-dihydro-2H-benzo[1,4]oxazin-6-yl)-propyl]-phenoxy}-nicotinic acid]",552 nM
11,"C[C@@H](c1ccc(Oc2ncc(C(=O)O)cc2Cl)cc1Cl)[C@](O)(c1ccc2c(c1)N(C)C(=O)CO2)C(F)(F)F [Example 224, 5-Chloro-6-{3-chloro-4-[(1S,2S)-3,3,3-trifluoro-2-hydroxy-1-methyl-2-(4-methyl-3-oxo-3,4-dihydro-2H-benzo[1,4]oxazin-6-yl)-propyl]-phenoxy}-nicotinic acid]",0.8 nM

# — patent US8450313B2, “2,3-diaryl- or heteroaryl-substituted 1,1,1-trifluoro-2-hydroxypropyl compounds” (Hoffmann-La Roche Inc., priority 2009, dated 2013)
